# Experiments:
# [1] = The effective concentration for 50% glutamate response was measured on Group II Metabotropic glutamate receptor; format: functional
# [2] = The effective concentration for 50% glutamate response was measured on Group I Metabotropic glutamate receptor; format: functional
# [3] = (§1) Percentage of glutamate maximal response was measured on Group II Metabotropic glutamate receptor; format: functional
# [4] = Percent glutamate response was measured on group 1 Metabotropic Glutamate Receptors
# [5] = as §1; format: functional; remark: listed apart in the source
EC50 [1] [µM],EC50 [2] [µM],EC50 [3] [µM],Response [4] [%],Response [5] [%],SMILES
–,–,0.1,–,–,NC(C(=O)O)C1[C@@H](C(=O)O)[C@@H]1C(=O)O (stereo not given in full)
–,–,30,10,–,NC1(C(=O)O)C2CCC1C(C(=O)O)C2 (stereo not given)
–,6.6,–,–,–,N[C@H](C(=O)O)c1cc(O)cc(O)c1
3.5,> 1000,–,–,–,N[C@@]1(C(=O)O)CN[C@@H](C(=O)O)C1
> 100,189,–,–,–,O=C(O)[C@H]1C[C@H](C(=O)O)N1
–,–,–,–,< 15,N[C@H](C(=O)O)c1cccc(O)c1
0.3,5,–,–,–,"N[C@@H](C(=O)O)[C@H]1CC1C(=O)O (single isomer, unassigned)"
–,20,–,–,–,"N[C@@H](C(=O)O)[C@@H]1CC1C(=O)O (single isomer, unassigned)"
–,–,–,–,50,NC1(C(=O)O)CC2CCC1C2C(=O)O (stereo in doubt; 8)
–,–,–,12,50,NC1(C(=O)O)CC2CCC1C2C(=O)O (stereo in doubt; 9)
0.33,1.6,–,–,–,NC1(C(=O)O)CC2CC1C2C(=O)O (stereo in doubt; 12)
54,121,–,–,–,NC1(C(=O)O)CC2CC1C2C(=O)O (stereo in doubt; 21)
38,232,–,–,–,NC1(C(=O)O)CC2CC1C2C(=O)O (stereo in doubt; 22)
0.032,> 1000,–,–,–,N[C@@]1(C(=O)O)CC[C@H]2[C@H](C(=O)O)[C@H]21 [EGLUMETAD]
0.29,4.9,–,–,–,N[C@@H](CCC(=O)O)C(=O)O [GLUTAMIC ACID]

SMILES,EC50 [1] [µM],EC50 [2] [µM],EC50 [3] [µM],Response [4] [%],Response [5] [%]
N[C@@]1(C(=O)O)CC[C@H](C(=O)O)C1,13,> 300,–,–,–
N[C@@]1(C(=O)O)CC[C@@H](C(=O)O)C1,18,9.3,–,–,–
N[C@]1(C(=O)O)CC[C@H](C(=O)O)C1,110,127,–,–,–
N[C@H](C(=O)O)c1cc(O)no1 [IBOTENIC ACID],50,6,–,–,–
N[C@@H](Cn1oc(=O)[nH]c1=O)C(=O)O [QUISQUALATE],100,0.9,–,–,–

# From ChEMBL document CHEMBL1132315, “Pharmacophore models of group I and group II metabotropic glutamate receptor agonists. Analysis of conformational, steric, and topological parameters affecting potency and selectivity” (J Med Chem, 1999)
